Test results from patent US12404295B2, “(Hetero)aryl-methyl-thio-beta-D-galactopyranoside derivatives” (Idorsia Pharmaceuticals Ltd, priority 2019, dated 2025).
Where two headings read alike, the source gives them in different places.

How the values were obtained:
[1] = biological target: human Gal-3 (hGal-3) (Homo sapiens (Human), UniProt P17931); experiment: competitive binding assay: biotinylated hGal-3 binding to microplate-adsorbed asialofetuin (ASF)
How it was run: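 Serial DMSO dilutions of each compound; binding incubation of 3 hours at 4 °C with cold-buffer washes; detection using 80 ng/mL streptavidin-peroxidase for 1 hour, then ABTS. Multiple determinations were averaged to give the IC50.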

[2] = biological target: human Gal-1 (hGal-1) (Homo sapiens (Human), UniProt P09382); experiment: competitive binding assay: biotinylated hGal-1 binding to microplate-adsorbed asialofetuin (ASF); conditions: Table 15; read-out: IC50 (Galectin-1 inhibition)
How it was run: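 Spectrophotometric competition readout: after compound and biotinylated hGal-1 (300-1000 ng/mL) sit 3 h at 4° C on adsorbed asialofetuin, streptavidin-peroxidase (1 h, 4° C) and ABTS reveal residual binding. Reported IC50 values are means of repeat runs.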

[3] = Table 11, read-out: IC50 (Gal-3 inhibition)
[4] = Gal-3 inhibition, binding of biotinylated hGal-3 to ASF, mean values, read-out: IC50

Sequence of human Gal-1 (hGal-1) (P09382 whole entry): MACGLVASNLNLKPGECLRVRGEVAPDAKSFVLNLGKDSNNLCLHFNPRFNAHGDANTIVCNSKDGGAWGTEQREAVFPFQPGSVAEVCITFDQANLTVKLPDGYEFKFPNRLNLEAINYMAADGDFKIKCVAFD
Sequence of human Gal-3 (hGal-3) (P17931 whole entry): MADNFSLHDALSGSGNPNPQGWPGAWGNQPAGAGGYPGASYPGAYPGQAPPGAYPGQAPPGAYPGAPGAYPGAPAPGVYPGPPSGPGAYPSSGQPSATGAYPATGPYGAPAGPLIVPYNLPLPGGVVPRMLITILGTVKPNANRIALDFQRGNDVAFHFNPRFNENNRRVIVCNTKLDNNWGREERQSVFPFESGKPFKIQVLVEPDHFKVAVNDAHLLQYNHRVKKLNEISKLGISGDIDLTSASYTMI

| SMILES | IC50 [1, 3] [nM] | IC50 [2] [nM] | IC50 [1, 4] [nM] |
| --- | --- | --- | --- |
| CO[C@@H]1[C@@H](n2cc(-c3cc(F)c(F)c(F)c3)nn2)[C@@H](O)[C@@H](CO)O[C@H]1S[C@H](c1noc(C2CC2)c1C)C1(O)CCC(F)(F)CC1 [Example 2.44.145R.I., (2R,3R,4S,5R,6S)-6-(((R)-(5-Cyclopropyl-4-methylisoxazol-3-yl)(4,4-difluoro-1-hydroxycyclohexyl)methyl)thio)-2-(hydroxymethyl)-5-methoxy-4-(4-(3,4,5-trifluorophenyl)-1H-1,2,3-triazol-1-yl)tetrahydro-2H-pyran-3-ol] | 250 | 1200 | – |
| CO[C@@H]1[C@@H](n2cc(-c3cc(F)c(F)c(F)c3)nn2)[C@@H](O)[C@@H](CO)O[C@H]1S[C@@H](c1noc(C2CC2)c1C)C1(O)CCC(F)(F)CC1 [Example 2.44.145S.I., (2R,3R,4S,5R,6S)-6-(((S)-(5-Cyclopropyl-4-methylisoxazol-3-yl)(4,4-difluoro-1-hydroxycyclohexyl)methyl)thio)-2-(hydroxymethyl)-5-methoxy-4-(4-(3,4,5-trifluorophenyl)-1H-1,2,3-triazol-1-yl)tetrahydro-2H-pyran-3-ol] | 11200 | 31000 | – |
| CCCc1onc(C(S[C@@H]2O[C@H](CO)[C@H](O)[C@H](n3cc(-c4cc(F)c(F)c(F)c4)nn3)[C@H]2OC)C2(O)CCC(F)(F)CC2)c1CC (stereo partly drawn) [Example 2.44.146.I., (2R,3R,4S,5R,6S)-6-(((4,4-Difluoro-1-hydroxycyclohexyl)(4-ethyl-5-propylisoxazol-3-yl)methyl)thio)-2-(hydroxymethyl)-5-methoxy-4-(4-(3,4,5-trifluorophenyl)-1H-1,2,3-triazol-1-yl)tetrahydro-2H-pyran-3-ol] | 120 | 170 | – |
| CO[C@@H]1[C@@H](n2cc(-c3cc(F)c(F)c(F)c3)nn2)[C@@H](O)[C@@H](CO)O[C@H]1SC(c1nccc(C(F)(F)F)c1C)C1(O)CCC(F)(F)CC1 (stereo partly drawn) [Example 2.44.147.I., (2R,3R,4S,5R,6S)-6-(((4,4-Difluoro-1-hydroxycyclohexyl)(3-methyl-4-(trifluoromethyl)pyridin-2-yl)methyl)thio)-2-(hydroxymethyl)-5-methoxy-4-(4-(3,4,5-trifluorophenyl)-1H-1,2,3-triazol-1-yl)tetrahydro-2H-pyran-3-ol] | 240 | 1240 | – |
| CO[C@@H]1[C@@H](n2cc(-c3cc(F)c(F)c(F)c3)nn2)[C@@H](O)[C@@H](CO)O[C@H]1S[C@H](c1nccc(C(F)(F)F)c1C)C1(O)CCC(F)(F)CC1 [Example 2.44.147R.I., (2R,3R,4S,5R,6S)-6-(((R)-(4,4-Difluoro-1-hydroxycyclohexyl)(3-methyl-4-(trifluoromethyl)pyridin-2-yl)methyl)thio)-2-(hydroxymethyl)-5-methoxy-4-(4-(3,4,5-trifluorophenyl)-1H-1,2,3-triazol-1-yl)tetrahydro-2H-pyran-3-ol] | 190 | 760 | – |
| CO[C@@H]1[C@@H](n2cc(-c3cc(F)c(F)c(F)c3)nn2)[C@@H](O)[C@@H](CO)O[C@H]1S[C@@H](c1nccc(C(F)(F)F)c1C)C1(O)CCC(F)(F)CC1 [Example 2.44.147S.I., (2R,3R,4S,5R,6S)-6-(((S)-(4,4-Difluoro-1-hydroxycyclohexyl)(3-methyl-4-(trifluoromethyl)pyridin-2-yl)methyl)thio)-2-(hydroxymethyl)-5-methoxy-4-(4-(3,4,5-trifluorophenyl)-1H-1,2,3-triazol-1-yl)tetrahydro-2H-pyran-3-ol] | 5300 | 31800 | – |
| CO[C@@H]1[C@@H](n2cc(-c3cc(F)c(F)c(F)c3)nn2)[C@@H](O)[C@@H](CO)O[C@H]1S[C@H](c1nc(C)ccc1Cl)C1(O)CCC(F)(F)CC1 [Example 2.44.148R.I., (2R,3R,4S,5R,6S)-6-(((R)-(3-Chloro-6-methylpyridin-2-yl)(4,4-difluoro-1-hydroxycyclohexyl)methyl)thio)-2-(hydroxymethyl)-5-methoxy-4-(4-(3,4,5-trifluorophenyl)-1H-1,2,3-triazol-1-yl)tetrahydro-2H-pyran-3-ol] | 240 | 3040 | – |
| CO[C@@H]1[C@@H](n2cc(-c3cc(F)c(F)c(F)c3)nn2)[C@@H](O)[C@@H](CO)O[C@H]1S[C@@H](c1nc(C)ccc1Cl)C1(O)CCC(F)(F)CC1 [Example 2.44.148S.I., (2R,3R,4S,5R,6S)-6-(((S)-(3-Chloro-6-methylpyridin-2-yl)(4,4-difluoro-1-hydroxycyclohexyl)methyl)thio)-2-(hydroxymethyl)-5-methoxy-4-(4-(3,4,5-trifluorophenyl)-1H-1,2,3-triazol-1-yl)tetrahydro-2H-pyran-3-ol] | 6990 | 31000 | – |
| CO[C@@H]1[C@@H](n2cc(-c3cc(F)c(F)c(F)c3)nn2)[C@@H](O)[C@@H](CO)O[C@H]1SC(c1nc(C)ccc1C)C1(O)CCC(F)(F)CC1 (stereo partly drawn) [Example 2.44.149.I., (2R,3R,4S,5R,6S)-6-(((4,4-Difluoro-1-hydroxycyclohexyl)(3,6-dimethylpyridin-2-yl)methyl)thio)-2-(hydroxymethyl)-5-methoxy-4-(4-(3,4,5-trifluorophenyl)-1H-1,2,3-triazol-1-yl)tetrahydro-2H-pyran-3-ol] | 400 | 2800 | – |
| OC[C@H]1O[C@@H](SC(c2ccccc2C(F)(F)F)C2(O)CCNCC2)[C@H](O)[C@@H](n2cc(-c3cc(F)c(F)c(F)c3)nn2)[C@H]1O (stereo partly drawn) [Example 2.45.112., (2R,3R,4S,5R,6S)-2-(Hydroxymethyl)-6-(((4-hydroxypiperidin-4-yl)(2-(trifluoromethyl)phenyl)methyl)thio)-4-(4-(3,4,5-trifluorophenyl)-1H-1,2,3-triazol-1-yl)tetrahydro-2H-pyran-3,5-diol] | – | 460 | 130 |
| CNS(=O)(=O)N1CCC(O)(C(S[C@@H]2O[C@H](CO)[C@H](O)[C@H](n3cc(-c4cc(F)c(F)c(F)c4)nn3)[C@H]2O)c2ccccc2C(F)(F)F)CC1 (stereo partly drawn) [Example 2.46.112., 4-((((2S,3R,4S,5R,6R)-3,5-Dihydroxy-6-(hydroxymethyl)-4-(4-(3,4,5-trifluorophenyl)-1H-1,2,3-triazol-1-yl)tetrahydro-2H-pyran-2-yl)thio)(2-(trifluoromethyl)phenyl)methyl)-4-hydroxy-N-methylpiperidine-1-sulfonamide] | – | 270 | 50 |
| CS(=O)(=O)N1CCC(O)([C@H](S[C@@H]2O[C@H](CO)[C@H](O)[C@H](n3cc(-c4cc(F)c(F)c(F)c4)nn3)[C@H]2O)c2ccccc2C(F)(F)F)CC1 [Example 2.47.112R., (2S,3R,4S,5R,6R)-2-(((R)-(4-Hydroxy-1-(methylsulfonyl)piperidin-4-yl)(2-(trifluoromethyl)phenyl)methyl)thio)-6-(hydroxymethyl)-4-(4-(3,4,5-trifluorophenyl)-1H-1,2,3-triazol-1-yl)tetrahydro-2H-pyran-3,5-diol] | – | 120 | 30 |
| CS(=O)(=O)N1CCC(O)([C@@H](S[C@@H]2O[C@H](CO)[C@H](O)[C@H](n3cc(-c4cc(F)c(F)c(F)c4)nn3)[C@H]2O)c2ccccc2C(F)(F)F)CC1 [Example 2.47.112S., (2S,3R,4S,5R,6R)-2-(((S)-(4-Hydroxy-1-(methylsulfonyl)piperidin-4-yl)(2-(trifluoromethyl)phenyl)methyl)thio)-6-(hydroxymethyl)-4-(4-(3,4,5-trifluorophenyl)-1H-1,2,3-triazol-1-yl)tetrahydro-2H-pyran-3,5-diol] | – | 17500 | 2820 |
| CC(=O)N1CCC(O)(C(S[C@@H]2O[C@H](CO)[C@H](O)[C@H](n3cc(-c4cc(F)c(F)c(F)c4)nn3)[C@H]2O)c2ccccc2C(F)(F)F)CC1 (stereo partly drawn) [Example 2.48.112., 1-(4-((((2S,3R,4S,5R,6R)-3,5-Dihydroxy-6-(hydroxymethyl)-4-(4-(3,4,5-trifluorophenyl)-1H-1,2,3-triazol-1-yl)tetrahydro-2H-pyran-2-yl)thio)(2-(trifluoromethyl)phenyl)methyl)-4-hydroxypiperidin-1-yl)ethan-1-one] | – | 750 | 220 |
| CO[C@@H]1[C@@H](n2cc(-c3cc(F)c(F)c(F)c3)nn2)[C@@H](O)[C@@H](CO)O[C@H]1SC(c1ccccc1C(F)(F)F)C1(O)CCN(C(C)=O)CC1 (stereo partly drawn) [Example 2.48.112.I., 1-(4-Hydroxy-4-((((2S,3R,4S,5R,6R)-5-hydroxy-6-(hydroxymethyl)-3-methoxy-4-(4-(3,4,5-trifluorophenyl)-1H-1,2,3-triazol-1-yl)tetrahydro-2H-pyran-2-yl)thio)(2-(trifluoromethyl)phenyl)methyl)piperidin-1-yl)ethan-1-one] | – | 400 | 190 |
| CO[C@@H]1[C@@H](n2cc(-c3cc(F)c(F)c(F)c3)nn2)[C@@H](O)[C@@H](CO)O[C@H]1SC(c1ccccc1C(F)(F)F)C1(O)CCN(C(=O)NC2CC2)CC1 (stereo partly shown) [Example 2.49.112.I.] | – | 490 | 210 |
| O=C(NC1CC1)N1CCC(O)([C@H](S[C@@H]2O[C@H](CO)[C@H](O)[C@H](n3cc(-c4cc(F)c(F)c(F)c4)nn3)[C@H]2O)c2ccccc2C(F)(F)F)CC1 [Example 2.49.112R., N-Cyclopropyl-4-((R)-(((2S,3R,4S,5R,6R)-3,5-dihydroxy-6-(hydroxymethyl)-4-(4-(3,4,5-trifluorophenyl)-1H-1,2,3-triazol-1-yl)tetrahydro-2H-pyran-2-yl)thio)(2-(trifluoromethyl)phenyl)methyl)-4-hydroxypiperidine-1-carboxamide] | – | 160 | 50 |
